Data as given in patent publication EP0911330B1, “1-(4-Arylpiperazine-1-y1)-3-(2-oxopyrrolidin/piperidin-1-y1) propanes as therapeutic agents for hypertension, ischemia, cardiovascular and other adrenergic receptors related disorders” (Council of Scientific & Industrial Research, priority 1997, dated 1999).

What was measured:
cat [1] = assay: Effect on blood pressure and adrenaline vasopressor response in anaesthetized cat, i.v. (Table 2); assay type: in vivo; settings: for inhibition in vivo at 2 µmol/kg / inhibition in vivo at 10 µmol/kg / inhibition at 2 µmol/kg / inhibition at 10 µmol/kg: Felis catus, iv; for inhibition in vivo at 2 µmol/kg / inhibition in vivo at 10 µmol/kg: read-out: B.P. fall %; for inhibition at 2 µmol/kg / inhibition at 10 µmol/kg: read-out: Adrenaline vasopressure response % inhibition
Experimental: • (a) Cats (2.6-4.0 kg) of either sex anaesthetized with pentobarbitone sodium (40 mg/kg i.v.) and showing basal mean arterial blood pressure below 150 mm (Hg) were categorised as normotensive and above 150 mm Hg as hypertensive. Arterial blood pressure (BP) was recorded from one of the carotid artery through a stathum P23 DC pressure transducer and 7P1 low level DC preamplifier on a Grass Model P7 Polygraph, Signals from 7P1 preamplifier were used to trigger 7P4 Tachograph preamplifier for recording the heart rate (HR). Right femoral vein and Trachea were cannulated for intravenous injections and artificial ventilation respectively. Control responses to intravenous injection of noradrenaline (2-4 ug); acetyl choline (1-2 ug); histamine ([…]) and isoprenaline (1-2 ug) were taken before and after the administration of test doses of each compounds.

[2] = tested on: Langendorff perfused rat heart; assay: Antiischemic activity, Langendorff perfused rat heart, brief (16 min.) ischemic insult, compound given at reperfusion (Table 3); settings: 0.001 ug/ml at reperfusion
Experimental: Table 3: Compound administered at the time of reperfusion at a dose of 0.001 ug/ml on brief period (16 min.) of ischemic insult.
(§1) The rats were killed by decapitation, heart were rapidly excised and placed in ice-cold HEPES tyrode buffer. Then isolated hearts were perfused retrogradely through coronary arteries using the Langendorff technique. The perfusion buffer consisted (in mM) NaCl 137, KCl 5.4, CaCl2 1.8, MgCl2 1.0, glucose 11.2 and HEPES 3.0. The buffer (pH 7.4) was continuously gassed with oxygen and maintained at 37°C. Coronary flow rate was maintained at 10 ml/min. The heart contracted spontaneously.
(§2) The perfused heart was allowed to equilibrate for 30 min. before initiation of any insult protocol. The text compounds were given at the time of reperfusion. Some of the compounds were dissolved in ethanol. Final concentration of ethanol in the perfusion buffer was 0.0001% and had no effect of its own on the parameter used. • (a) For brief period of ischemic insult (Hideo et al.). Pathophysiology and pathogenesis of stunned myocardium. J. Clin. Invest., 79, 950-961, 1987). Ischemia was initiated by stopping the flow for 16 min. followed by 30 min. reperfusion period. The durations were decided on the initial pilot experiments leading to 50% recovery of function. • (b) For prolong period of ischemic insult (Becker, L.C. & Ambrosio, G. Myocardial consequences of reperfusion. Prog. Cardiovas. Dis., 30, 23-44, 1987). Ischemia was initiated by stopping the flow for […]. followed by 30 min. reperfusion.

[3] = tested on: Langendorff perfused rat heart preparation; assay: Cardioprotective activity, Langendorff perfused rat heart, prolonged ischemic insult, compound given at reperfusion; settings: 10^-6M, ischemic insult 45 min.
Experimental: Further, in Langendorff perfused rat heart preparation subjected to even upto 90 min. global ischemia, the compound at 0.001 ug/ml conc. given at the time of reperfusion revived normal rhythmic contraction started within 2 min. (Table 1) and incidence of reperfusion induced arrhythmia were abolished. Table 1: Compound administered at the time of reperfusion at the dose of 0.001 ug/ml on prolong period (90 min.) of ischemic insult.
as §1, §2

cat [4] = assay: Comparative antihypertensive effect with clinically used antihypertensive drugs in cat; assay type: in vivo; settings: 2 uMol/kg i.v.

SMILES: CCc1ccc(N2CCN(CCCN3CCCC3=O)CC2)cc1 [C6H4-4-C2H5, n=1, 1-[4-(4-ethylphenyl)piperazin-1-yl]-3-[2-oxopyrrolidin-1-yl]propane]
- inhibition in vivo at 2 µmol/kg (cat [1]; dose 2.0 umol/kg i.v.): 9%
- inhibition in vivo at 10 µmol/kg (cat [1]; dose 10.0 umol/kg i.v.): 20%
- Dur. (cat [1]; dose 2.0 umol/kg i.v.): Tr
- Dur. (cat [1]; dose 10.0 umol/kg i.v.): 14 min
- Onset [2]: 2.0 min

SMILES: COC(=O)C1=C(C)NC(C)=C(C(=O)OC)C1c1ccccc1[N+](=O)[O-] [Nifedipine, reference compound]
- Onset [3]: 2.5 min

SMILES: C[C@H](CS)C(=O)N1CCC[C@H]1C(=O)O [Captopril, reference compound]
- B.P. fall (cat [4]): 14%
- Dur. (cat [4]): 28 min

SMILES: O=C1CCCN1CCCN1CCN(c2cccc(Cl)c2)CC1 [C6H4-3-Cl, n=1, 1-[4-(3-chlorophenyl)piperazin-1-yl]-3-[2-oxopyrrolidin-1-yl]propane]
- inhibition at 2 µmol/kg (cat [1]; dose 2.0 umol/kg i.v.): -20 to 0%
- inhibition in vivo at 2 µmol/kg (cat [1]; dose 2.0 umol/kg i.v.): 25%
- Dur. (cat [1]; dose 2.0 umol/kg i.v.): 20 min
- Dur. (cat [1]; dose 10.0 umol/kg i.v.): >57 min
- Onset [2]: 1.0 min

SMILES: CCc1ccccc1N1CCN(CCCN2CCCC2=O)CC1 [C6H4-2-C2H5, n=1, 1-[4-(2-ethylphenyl)piperazin-1-yl]-3-[2-oxopyrrolidin-1-yl] propane]
- inhibition at 2 µmol/kg (cat [1]; dose 2.0 umol/kg i.v.): -20 to 0%
- inhibition in vivo at 2 µmol/kg (cat [1]; dose 2.0 umol/kg i.v.): 13%
- inhibition in vivo at 10 µmol/kg (cat [1]; dose 10.0 umol/kg i.v.): 62%
- Dur. (cat [1]; dose 2.0 umol/kg i.v.): 10 min
- Dur. (cat [1]; dose 10.0 umol/kg i.v.): 10 min
- Onset [2]: 3.0 min

SMILES: O=C1CCCCN1CCCN1CCN(c2ccc(Cl)cc2)CC1 [C6H4-4-Cl, n=2, 1-[4-(4-chlorophenyl)piperazin-1-yl]-3-[2-oxopiperidin-1-yl] propane]
- inhibition at 2 µmol/kg (cat [1]; dose 2.0 umol/kg i.v.): 20%
- inhibition in vivo at 2 µmol/kg (cat [1]; dose 2.0 umol/kg i.v.): 24%
- inhibition at 10 µmol/kg (cat [1]; dose 10.0 umol/kg i.v.): 25%
- inhibition in vivo at 10 µmol/kg (cat [1]; dose 10.0 umol/kg i.v.): 46%
- Dur. (cat [1]; dose 2.0 umol/kg i.v.): 20 min
- Dur. (cat [1]; dose 10.0 umol/kg i.v.): 25 min

SMILES: O=C1CCCCN1CCCN1CCN(c2ccccn2)CC1 [2-Pyridyl, n=2, 1-[4-(2-pyridyl)piperazin-1-yl]-3-[2-oxopiperidin-1-yl] propane]
- inhibition at 2 µmol/kg (cat [1]; dose 2.0 umol/kg i.v.): 28%
- inhibition in vivo at 2 µmol/kg (cat [1]; dose 2.0 umol/kg i.v.): 34%
- inhibition at 10 µmol/kg (cat [1]; dose 10.0 umol/kg i.v.): -20 to 0%
- inhibition in vivo at 10 µmol/kg (cat [1]; dose 10.0 umol/kg i.v.): 42%
- Dur. (cat [1]; dose 2.0 umol/kg i.v.): 53 min
- Dur. (cat [1]; dose 10.0 umol/kg i.v.): >71 min
- Onset [2]: 2.0 min
- Percentage recovery 15 min. [2]: 47.60 Percentage
- Percentage recovery 30 min. [2]: 71.40 Percentage

SMILES: O=C1CCCCN1CCCN1CCN(c2cccc(C(F)(F)F)c2)CC1 [C6H4-3-CF3, n=2, 1-[4-(3-trifluoromethylphenyl)piperazin-1-yl]-3-[2-oxopiperidin-1-yl]propane]
- inhibition at 2 µmol/kg (cat [1]; dose 2.0 umol/kg i.v.): -20 to 0%
- inhibition at 10 µmol/kg (cat [1]; dose 10.0 umol/kg i.v.): 25%
- inhibition in vivo at 10 µmol/kg (cat [1]; dose 10.0 umol/kg i.v.): 10%
- Dur. (cat [1]; dose 10.0 umol/kg i.v.): Tr

SMILES: O=C1CCCCN1CCCN1CCN(c2ccc(F)cc2)CC1 [C6H4-4-F, n=2, 1-[4-(4-fluorophenyl)piperazin-1-yl]-3-[2-oxopiperidin-1-yl] propane]
- inhibition at 2 µmol/kg (cat [1]; dose 2.0 umol/kg i.v.): 46%
- inhibition in vivo at 2 µmol/kg (cat [1]; dose 2.0 umol/kg i.v.): 23%
- inhibition at 10 µmol/kg (cat [1]; dose 10.0 umol/kg i.v.): > 100%
- inhibition in vivo at 10 µmol/kg (cat [1]; dose 10.0 umol/kg i.v.): 33%
- Dur. (cat [1]; dose 2.0 umol/kg i.v.): 40 min
- Dur. (cat [1]; dose 10.0 umol/kg i.v.): >84 min

SMILES: O=C1CCCN1CCCN1CCN(c2cccc(F)c2)CC1 [C6H4-3-F, n=1, 1-[4-(3-fluorophenyl)piperazin-1-yl]-3-[2-oxopyrrolidin-1-yl]propane]
- inhibition at 2 µmol/kg (cat [1]; dose 2.0 umol/kg i.v.): 80%
- inhibition in vivo at 2 µmol/kg (cat [1]; dose 2.0 umol/kg i.v.): 18%
- inhibition at 10 µmol/kg (cat [1]; dose 10.0 umol/kg i.v.): > 100%
- inhibition in vivo at 10 µmol/kg (cat [1]; dose 10.0 umol/kg i.v.): 32%
- Dur. (cat [1]; dose 2.0 umol/kg i.v.): 3 min
- Dur. (cat [1]; dose 10.0 umol/kg i.v.): 30 min
- Onset [2]: 2.0 min

SMILES: O=C1CCCCN1CCCN1CCN(c2cccc(Cl)c2)CC1 [C6H4-3-Cl, n=2, 1-[4-(3-chlorophenyl)piperazin-1-yl]-3-[2-oxopiperidin-1-yl] propane]
- inhibition at 2 µmol/kg (cat [1]; dose 2.0 umol/kg i.v.): 33%
- inhibition in vivo at 2 µmol/kg (cat [1]; dose 2.0 umol/kg i.v.): 27%
- inhibition at 10 µmol/kg (cat [1]; dose 10.0 umol/kg i.v.): 10%
- inhibition in vivo at 10 µmol/kg (cat [1]; dose 10.0 umol/kg i.v.): 44%
- Dur. (cat [1]; dose 2.0 umol/kg i.v.): 9 min
- Dur. (cat [1]; dose 10.0 umol/kg i.v.): 62 min
- Onset [2]: 3.0 min
- Percentage recovery 15 min. [2]: 31.50 Percentage
- Percentage recovery 30 min. [2]: 39.40 Percentage

SMILES: O=C1CCCN1CCCN1CCN(c2ccc(Cl)cc2)CC1 [C6H4-4-Cl, n=1, 1-[4-(4-chlorophenyl)piperazin-1-yl]-3-[2-oxopyrrolidin-1-yl]propane]
- Onset [2]: 1.0 min
